Reference: ChEMBL document CHEMBL3272269, “Synthesis and antileukemic activities of furanyl, pyranyl, and ribosyl derivatives of 4-(3,3-dimethyl-1-triazeno)imidazole-5-carboxamide and 3-(3,3-dimethyl-1-triazeno)pyrazole-4-carboxamide” (J Med Chem, 1979)
The source made the active and inactive calls. No cut-off for these calls is given here.

Experiments:
Mus musculus [1] = assay: Toxicity in mouse L1210 cells allografted BDF1 mouse assessed as reduction in body weight at 400 mg/kg administered on day 1 followed by 3 injections with 4 day interval; format: organism-based; design: dose 400 mg/kg; conditions: in vivo, 96 h
Mus musculus [2] = assay: Toxicity in mouse L1210 cells allografted BDF1 mouse assessed as reduction in body weight at 200 mg/kg administered on day 1 followed by 3 injections with 4 day interval; format: organism-based; design: dose 200 mg/kg; conditions: in vivo, 96 h
Mus musculus [3] = assay: Toxicity in mouse L1210 cells allografted BDF1 mouse assessed as reduction in body weight at 100 mg/kg administered on day 1 followed by 3 injections with 4 day interval; format: organism-based; design: dose 100 mg/kg; conditions: in vivo, 96 h
Mus musculus [4] = assay: Toxicity in mouse L1210 cells allografted BDF1 mouse assessed as reduction in body weight at 200 mg/kg administered on day 1 followed by 9 injections with 1 day interval; format: organism-based; design: dose 200 mg/kg; conditions: in vivo, 24 h
L1210 [5] = assay: Antitumor activity against mouse L1210 cells allografted in mouse assessed as survival at 400 mg/kg administered on day 1 followed by 3 injections with 4 day interval; format: functional, organism-based; design: dose 400 mg/kg
L1210 [6] = assay: Antitumor activity against mouse L1210 cells allografted in mouse assessed as survival at 200 mg/kg administered on day 1 followed by 3 injections with 4 day interval; format: functional, organism-based; design: dose 200 mg/kg
L1210 [7] = assay: Antitumor activity against mouse L1210 cells allografted in mouse assessed as survival at 100 mg/kg administered on day 1 followed by 3 injections with 4 day interval; format: functional, organism-based; design: dose 100 mg/kg
L1210 [8] = assay: Antitumor activity against mouse L1210 cells allografted in mouse assessed as survival at 200 mg/kg administered on day 1 followed by 9 injections with 1 day interval; format: functional, organism-based; design: dose 200 mg/kg
L1210 [9] = assay: Antitumor activity against mouse L1210 cells allografted in mouse assessed as increase in survival at 400 mg/kg administered on day 1 followed by 3 injections with 4 day interval relative to control; format: functional
L1210 [10] = assay: Antitumor activity against mouse L1210 cells allografted in mouse assessed as increase in survival at 200 mg/kg administered on day 1 followed by 3 injections with 4 day interval relative to control; format: functional
L1210 [11] = assay: Antitumor activity against mouse L1210 cells allografted in mouse assessed as increase in survival at 100 mg/kg administered on day 1 followed by 3 injections with 4 day interval relative to control; format: functional
L1210 [12] = assay: Antitumor activity against mouse L1210 cells allografted in mouse assessed as increase in survival at 200 mg/kg administered on day 1 followed by 9 injections with 1 day interval relative to control; format: functional
Mus musculus [13] = assay: Toxicity in mouse L1210 cells allografted mouse assessed as reduction in body weight at 200 mg/kg administered on day 1 followed by 5 injections with 1 day interval; format: organism-based; design: dose 200 mg/kg; conditions: in vivo, 24 h
Mus musculus [14] = assay: Toxicity in mouse L1210 cells allografted mouse assessed as reduction in body weight at 100 mg/kg administered on day 1 followed by 5 injections with 1 day interval; format: organism-based; design: dose 100 mg/kg; conditions: in vivo, 24 h
L1210 [15] = assay: Antitumor activity against mouse L1210 cells allografted in mouse assessed as survival at 200 mg/kg administered on day 1 followed by 5 injections with 1 day interval; format: functional, organism-based; design: dose 200 mg/kg
L1210 [16] = assay: Antitumor activity against mouse L1210 cells allografted in mouse assessed as survival at 100 mg/kg administered on day 1 followed by 5 injections with 1 day interval; format: functional, organism-based; design: dose 100 mg/kg
L1210 [17] = assay: Antitumor activity against mouse L1210 cells allografted in mouse assessed as increase in survival at 200 mg/kg administered on day 1 followed by 5 injections with 1 day interval relative to control; format: functional
L1210 [18] = assay: Antitumor activity against mouse L1210 cells allografted in mouse assessed as increase in survival at 100 mg/kg administered on day 1 followed by 5 injections with 1 day interval relative to control; format: functional
Mus musculus [19] = assay: Toxicity in mouse L1210 cells allografted BDF1 mouse assessed as reduction in body weight at 120 mg/kg administered on day 1 followed by 5 injections with 1 day interval; format: organism-based; design: dose 120 mg/kg; conditions: in vivo, 24 h
Mus musculus [20] = assay: Toxicity in mouse L1210 cells allografted BDF1 mouse assessed as reduction in body weight at 80 mg/kg administered on day 1 followed by 5 injections with 1 day interval; format: organism-based; design: dose 80 mg/kg; conditions: in vivo, 24 h
Mus musculus [21] = assay: Toxicity in mouse L1210 cells allografted BDF1 mouse assessed as reduction in body weight at 53 mg/kg administered on day 1 followed by 5 injections with 1 day interval; format: organism-based; design: dose 53 mg/kg; conditions: in vivo, 24 h
L1210 [22] = assay: Antitumor activity against mouse L1210 cells allografted in BDF1 mouse assessed as survival at 180 mg/kg administered on day 1 followed by 5 injections with 1 day interval; format: functional, organism-based; design: dose 180 mg/kg
L1210 [23] = assay: Antitumor activity against mouse L1210 cells allografted in BDF1 mouse assessed as survival at 125 mg/kg administered on day 1 followed by 5 injections with 1 day interval; format: functional, organism-based; design: dose 125 mg/kg
L1210 [24] = assay: Antitumor activity against mouse L1210 cells allografted in BDF1 mouse assessed as survival at 80 mg/kg administered on day 1 followed by 5 injections with 1 day interval; format: functional, organism-based; design: dose 80 mg/kg
L1210 [25] = assay: Antitumor activity against mouse L1210 cells allografted in BDF1 mouse assessed as survival at 53 mg/kg administered on day 1 followed by 5 injections with 1 day interval; format: functional, organism-based; design: dose 53 mg/kg
L1210 [26] = assay: Antitumor activity against mouse L1210 cells allografted in BDF1 mouse assessed as increase in survival at 180 mg/kg administered on day 1 followed by 5 injections with 1 day interval relative to control; format: functional
L1210 [27] = assay: Antitumor activity against mouse L1210 cells allografted in BDF1 mouse assessed as increase in survival at 125 mg/kg administered on day 1 followed by 5 injections with 1 day interval relative to control; format: functional
L1210 [28] = assay: Antitumor activity against mouse L1210 cells allografted in BDF1 mouse assessed as increase in survival at 120 mg/kg administered on day 1 followed by 5 injections with 1 day interval relative to control; format: functional
L1210 [29] = assay: Antitumor activity against mouse L1210 cells allografted in BDF1 mouse assessed as increase in survival at 80 mg/kg administered on day 1 followed by 5 injections with 1 day interval relative to control; format: functional
L1210 [30] = assay: Antitumor activity against mouse L1210 cells allografted in BDF1 mouse assessed as increase in survival at 53 mg/kg administered on day 1 followed by 5 injections with 1 day interval relative to control; format: functional
Mus musculus [31] = assay: Toxicity in mouse L1210 cells allografted BDF1 mouse assessed as reduction in body weight at 180 mg/kg administered on day 1 followed by 5 injections with 1 day interval; format: organism-based; design: dose 180 mg/kg; conditions: in vivo, 24 h
Mus musculus [32] = assay: Toxicity in mouse L1210 cells allografted BDF1 mouse assessed as reduction in body weight at 125 mg/kg administered on day 1 followed by 5 injections with 1 day interval; format: organism-based; design: dose 125 mg/kg; conditions: in vivo, 24 h
L1210 [33] = assay: Antitumor activity against mouse L1210 cells allografted in mouse assessed as survival at 180 mg/kg administered on day 1 followed by 9 injections with 1 day interval; format: functional, organism-based; design: dose 180 mg/kg
L1210 [34] = assay: Antitumor activity against mouse L1210 cells allografted in mouse assessed as survival at 109 mg/kg administered on day 1 followed by 9 injections with 1 day interval; format: functional, organism-based; design: dose 109 mg/kg
L1210 [35] = assay: Antitumor activity against mouse L1210 cells allografted in mouse assessed as survival at 65 mg/kg administered on day 1 followed by 9 injections with 1 day interval; format: functional, organism-based; design: dose 65 mg/kg
L1210 [36] = assay: Antitumor activity against mouse L1210 cells allografted in mouse assessed as increase in survival at 180 mg/kg administered on day 1 followed by 9 injections with 1 day interval relative to control; format: functional
L1210 [37] = assay: Antitumor activity against mouse L1210 cells allografted in mouse assessed as increase in survival at 109 mg/kg administered on day 1 followed by 9 injections with 1 day interval relative to control; format: functional
L1210 [38] = assay: Antitumor activity against mouse L1210 cells allografted in mouse assessed as increase in survival at 65 mg/kg administered on day 1 followed by 9 injections with 1 day interval relative to control; format: functional

CC(=O)OC[C@H]1O[C@@H](n2cc(C(N)=O)c(/N=N/N(C)C)n2)[C@H](OC(C)=O)[C@@H]1OC(C)=O
Activity (Mus musculus [1]): 1.1 g
Activity (Mus musculus [2]): 1.8 g
Activity (Mus musculus [3]): 0.1 g
Activity (Mus musculus [4]): 2.8 g
Activity (L1210 [5]): Active
Activity (L1210 [6]): Active
Activity (L1210 [7]): Active
Activity (L1210 [8]): Active
T/C (L1210 [9]): 89%
T/C (L1210 [10]): 105%
T/C (L1210 [11]): 100%
T/C (L1210 [12]): 107%

CC(=O)OC[C@H]1O[C@@H](n2cnc(C(N)=O)c2/N=N/N(C)C)[C@H](OC(C)=O)[C@@H]1OC(C)=O
Activity (Mus musculus [13]): 0.9 g
Activity (Mus musculus [14]): 0.3 g
Activity (L1210 [15]): Active
Activity (L1210 [16]): Active
T/C (L1210 [17]): 95%
T/C (L1210 [18]): 104%

CN(C)/N=N/c1[nH]cnc1C(N)=O [DACARBAZINE]
Activity (Mus musculus [19]): 2.2 g
Activity (Mus musculus [20]): 2 g
Activity (Mus musculus [21]): 0.8 g
Activity (L1210 [22]): Active
Activity (L1210 [23]): Active
Activity (L1210 [24]): Active
Activity (L1210 [25]): Active
T/C (L1210 [26]): 142%
T/C (L1210 [27]): 147%
T/C (L1210 [28]): 157%
T/C (L1210 [29]): 147%
T/C (L1210 [30]): 126%
Activity (Mus musculus [31]): 2.6 g
Activity (Mus musculus [32]): 2.1 g

CC(=O)OC[C@H]1O[C@@H](n2ncc(C(N)=O)c2/N=N/N(C)C)[C@H](OC(C)=O)[C@@H]1OC(C)=O
Activity (Mus musculus [13]): 2.3 g
Activity (L1210 [15]): Active
T/C (L1210 [17]): 122%

CN(C)/N=N/c1n[nH]cc1C(N)=O
Activity (L1210 [33]): Active
Activity (L1210 [34]): Active
Activity (L1210 [35]): Active
T/C (L1210 [36]): 134%
T/C (L1210 [37]): 176%
T/C (L1210 [38]): 142%
